In US20050250742A1 (Pfizer Inc., priority 2004, published 2005):

Key:
[1] = target: T1, PIN1-CD (catalytic PIN1 domain, devoid of the PIN1 WW domain) (Homo sapiens, UniProt Q13526); experiment: Dissociation constant (Kd) with PIN1 catalytic domain; assay type: binding; settings: peptide containing the catalytic PIN1 domain
T1 construct: PIN1 peptide containing the catalytic peptidyl-prolyl isomerase domain but devoid of the PIN1 WW domain
Excerpt: (§1) In Table 1, the Ki data reported under the PIN1—CD heading corresponds to testing with PIN1 peptide containing the catalytic peptidyl-prolyl isomerase domain but devoid of the PIN1 WW domain. Similarly, the dissociation constant (Kd) data under PIN1-CD refers to testing with a peptide containing the catalytic PIN1 domain but devoid of the PIN1 WW domain.

[2] = target: T2, PIN1-CD (catalytic peptidyl-prolyl isomerase domain, devoid of the PIN1 WW domain) (Homo sapiens, UniProt Q13526); experiment: Pin1 peptidyl-prolyl isomerase assay (protease-coupled, spectrophotometric); assay type: biochemical; settings: catalytic PPIase domain without WW domain; 15° C., pH 7.5, 100 μM Suc-AEPF-pNA
T2 construct: PIN1 peptide containing the catalytic peptidyl-prolyl isomerase domain but devoid of the PIN1 WW domain
T2 sequence (Q13526 52-163 limits assumed): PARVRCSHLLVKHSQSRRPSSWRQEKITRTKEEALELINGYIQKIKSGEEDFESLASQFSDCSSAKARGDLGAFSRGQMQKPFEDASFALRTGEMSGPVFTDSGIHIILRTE
Excerpt: PIN1 is a phosphorylation dependent peptidyl-prolyl isomerase. The PIN1 assay is a spectrophotometric assay based on the coupled chymotrypsin or subtilisin catalyzed, cis-trans conformation dependent cleavage of a para-nitroanaline containing peptide substrate. […] Cleavage of the isomerized peptide releases para-nitroanaline, which can be monitored by an increase in absorbance at 390 nm. The PIN1 peptide substrate, succinyl-[…]-proline-phenylalanine-paranitroaniline (Suc-AEPF-pNA) (Bachem), is kept in a predominantly cis conformation with an anhydrous TFE/LiCl solvent mixture.
Upon dilution into an aqueous assay mixture containing PIN1, the peptide substrate undergoes PIN1 catalyzed isomerization to the trans conformation. […] To minimize the spontaneous isomerization of the peptide substrate, reactions are performed at 15° C. A typical reaction contains 25 mM MOPS pH 7.5, 0.5 mM TCEP, 2% DMSO, 5 μl of a 25 mg/ml solution of subtilisin Carlsberg, 50 nM PIN1-PPiase, and 100 μM Suc-AEPF-pNA peptide substrate. Reactions are cooled to 15° C. and initiated with the addition of Suc-AEPF-pNA. The absorbance at 390 nm is monitored continuously until all substrate has been converted to the cleaved product. […] The rate constant k is linearly proportional to the concentration of active enzyme present in the assay mixture once the rate constant for the spontaneous isomerization is subtracted. […] Therefore, during inhibition experiments, the IC50, for non-tight binding inhibitors, is essentially the inhibition constant Ki.
as §1

T1 sequence (Q13526 52-163 limits assumed): as above

| Compound | Kd [1] [µM] | Ki [2] [µM] |
| --- | --- | --- |
| COc1ccc2cc(C(=O)N[C@@H](COP(=O)(O)O)Cc3cccc(F)c3)ccc2c1 [Example 25-32, Phosphoric acid mono-((R)-3-(3-fluoro-phenyl)-2-{[1-(6-methoxy-naphthalen-2-yl)-methanoyl]-amino}-propyl)ester] | < 1 | < 1 |
| O=C(OCCCCc1ccccc1)[C@@H]1CCCCN1S(=O)(=O)N[C@@H](COP(=O)(O)O)Cc1ccccc1 [Example 5b1, 1-(2-Phenyl-1-phosphonooxymethyl-ethylsulfamoyl)-piperidine-2S-carboxylic acid 4-phenyl-butyl ester] | < 10 | < 10 |
| O=C(O[C@@H](COP(=O)(O)O)Cc1cccc(F)c1)c1cc2ccccc2s1 [Example 54] | < 1 | < 1 |
| O=C(N[C@H](CCc1ccccc1)COP(=O)(O)O)c1ccc2ccccc2c1 [Example 37, Phosphoric acid mono-{2-[(1-naphthalen-2-yl-methanoyl)-amino]-4-phenyl-butyl}ester] | < 2 | < 10 |
| CC(C)(C)OC(=O)N[C@@H](COP(=O)(O)O)Cc1cccnc1 [Example 30, (1-Phosphonooxymethyl-2-pyridin-3-yl-ethyl)-carbamic acid tert-butyl ester] | < 10 | < 100 |
| O=C(O)[C@@H]1CCCCN1S(=O)(=O)N[C@@H](COP(=O)(O)O)Cc1ccccc1 [Example 5b2, 1-(2-Phenyl-1-phosphonooxymethyl-ethylsulfamoyl)-piperidine-2-carboxylic acid] | < 10 | < 10 |
| CC(C)(C)C(=O)N[C@@H](COP(=O)(O)O)Cc1cccc(F)c1 [Example 25-30, Phosphoric acid mono-[(R)-2-(2,2dimethyl-propanoylamino)-3-(3-fluoro-phenyl)-propyl]ester] | < 1 | < 1 |
| O=C(O[C@@H](COP(=O)(O)O)Cc1cccc(F)c1)c1ccc2ccccc2c1 [Example 74, Naphthalene-2-carboxylic acid (R)-1-(3-fluoro-benzyl)-2-phosphonooxy-ethyl ester] | < 1 | < 1 |
| Cc1cccc(C[C@H](COP(=O)(O)O)NC(=O)c2ccc3ccccc3c2Br)c1 [Example 25-34, Phosphoric acid mono-((R)-2-{[1-(1-bromo-naphthalen-2-yl)-methanoyl]-amino}-3-m-tolyl-propyl)ester] | < 1 | < 1 |
| O=P(O)(O)OC[C@@H](Cc1ccccc1)NS(=O)(=O)N1CCCC[C@H]1c1nnc(Cc2ccccc2)o1 [Example 5b5, Phosphoric acid mono-{(R)-2-[(S)-2-(5-benzyl-[1,3,4]oxadiazol-2-yl)-piperidine-1-sulfonylamino]-3-phenyl-propyl}ester] | < 10 | < 10 |
| COc1ccc2cc(C(=O)N[C@@H](COP(=O)(O)O)Cc3cccc(C)c3)ccc2c1 [Example 25-35, Phosphoric acid mono-((R)-2-{[1-(6-methoxy-naphthalen-2-yl)-methanoyl]-amino}-3-m-tolyl-propyl)ester] | < 1 | < 1 |
| O=C(O)[C@@H]1CCCCN1C(=O)N[C@@H](COP(=O)(O)O)Cc1ccccc1 [Example 16d, 1-(2-Phenyl-1-phosphonooxymethyl-ethylcarbamoyl)-piperidine-2-carboxylic acid] | < 10 | < 10 |
| O=C(N[C@@H](COP(=O)(O)O)Cc1cccc(F)c1)c1ccc2ccccc2c1Br [Example 25-31, Phosphoric acid mono-[(R)-2-{[1-(1-bromo-naphthalen-2-yl)-methanoyl]-amino}-3-(3-fluoro-phenyl)-propyl]ester] | < 1 | < 1 |
| O=C(N[C@@H](COP(=O)(O)O)Cc1ccccc1)c1ccc2[nH]cnc2c1 [Example 25-23, Phosphoric acid mono-{(R)-2-[(1H-benzoimidazole-5-carbonyl)-amino]-3-phenyl-propyl}ester] | < 1 | < 1 |
| O=C(O[C@@H](COP(=O)(O)O)Cc1ccccc1)c1ccc2ccccc2c1 [Example 49, Naphthalene-2-carboxylic acid (R)-2-phenyl-1-phosphonooxymethyl-ethyl ester] | < 1 | < 1 |
| CN(C)c1cccc2c(S(=O)(=O)N[C@@H](COP(=O)(O)O)Cc3cccc(F)c3)cccc12 [Example 42, Phosphoric acid mono-[(R)-2-(5-dimethylamino-naphthalene-1-sulfonylamino)-3-(3-fluoro-phenyl)-propyl]ester] | – | < 10 |
| CC(C)C(=O)N[C@@H](COP(=O)(O)O)Cc1ccccc1 [Example 25-15] | – | < 10 |
